Experimental data as given in patent US9233983B2, “Substituted hetero-bicyclic compounds, compositions and medicinal applications thereof” (ADVINUS THERAPEUTICS LIMITED, priority 2012, dated 2016).
pIC50: −log10 of the molar value.

Tests used:
[1] = test system: mouse splenocytes; assay: Inhibition of B Cell Activation as Measured by CD69 Expression in Mouse Splenocytes; type: cell-based; conditions: Splenocyte; C57/BL6 splenocytes, 3 ug/mL goat anti-mouse IgM, 18-20 hrs, CD69+ve cells within CD19; read-out: Mouse spleenocyte IC50
Method in brief: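 Total mouse splenocytes pre-incubated with compounds (half-log dilutions; DMSO 200× stocks from 2 mM) 30 min at 37 °C, then stimulated with 3 ug/mL anti-mouse IgM for 18-20 hrs. CD69+ cells within CD19+ B cells quantified by flow cytometry; IC50 from variable-slope sigmoid dose-response fit.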

[2] = target: human Bruton's Tyrosine Kinase (Btk) (Homo sapiens (Human), UniProt Q06187); assay: Recombinant Human Bruton's Tyrosine Kinase (Btk) Inhibition Assay (HTRF KinEASE-TK); type: biochemical; conditions: 20 ng/ml rhBtk, 77 μM ATP (KM), 1 μM TK-Biotin substrate, 90 min; read-out: hBTK IC50
Sequence of human Bruton's Tyrosine Kinase (Btk) (Q06187 whole entry): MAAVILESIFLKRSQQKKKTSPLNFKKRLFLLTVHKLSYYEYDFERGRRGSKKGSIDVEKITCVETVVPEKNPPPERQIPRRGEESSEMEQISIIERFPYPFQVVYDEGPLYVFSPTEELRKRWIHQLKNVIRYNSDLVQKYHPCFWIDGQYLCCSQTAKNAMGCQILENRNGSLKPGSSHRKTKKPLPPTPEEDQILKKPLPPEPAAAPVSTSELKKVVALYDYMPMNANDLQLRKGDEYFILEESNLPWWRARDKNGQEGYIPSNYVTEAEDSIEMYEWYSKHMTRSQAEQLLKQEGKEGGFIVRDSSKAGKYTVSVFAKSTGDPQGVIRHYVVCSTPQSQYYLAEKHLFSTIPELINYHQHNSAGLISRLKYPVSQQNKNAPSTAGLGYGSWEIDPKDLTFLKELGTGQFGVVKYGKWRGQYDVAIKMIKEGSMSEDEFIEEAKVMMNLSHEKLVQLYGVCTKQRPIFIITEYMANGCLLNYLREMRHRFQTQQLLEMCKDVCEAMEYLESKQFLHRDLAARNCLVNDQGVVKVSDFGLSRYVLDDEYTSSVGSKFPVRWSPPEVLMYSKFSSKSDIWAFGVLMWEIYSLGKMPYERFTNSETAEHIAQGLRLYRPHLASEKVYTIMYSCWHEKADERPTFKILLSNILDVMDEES

Compound	pIC50 [1]	pIC50 [2]
CC(=O)N1CC(N2CC=C(c3cc4c(-c5cccc(N6CCOc7cc(C8CC8)cc(F)c7C6=O)c5CO)ccnc4[nH]3)CC2)C1 [Example R-1, 4-[3-[2-[1-(1-acetylazetidin-3-yl)-3,6-dihydro-2H-pyridin-4-yl]-1H-pyrrolo[2,3-b]pyridin-4-yl]-2-(hydroxymethyl)phenyl]-8-cyclopropyl-6-fluoro-2,3-dihydro-1,4-benzoxazepin-5-one]	7.12	8.66
CCN1CC(N2CC=C(c3cc4c(-c5cccc(N6CCOc7cc(C8CC8)cc(F)c7C6=O)c5CO)ccnc4[nH]3)CC2)C1 [Example R-2, 8-cyclopropyl-4-[3-[2-[1-(1-ethylazetidin-3-yl)-3,6-dihydro-2H-pyridin-4-yl]-1H-pyrrolo[2,3-b]pyridin-4-yl]-2-(hydroxymethyl)phenyl]-6-fluoro-2,3-dihydro-1,4-benzoxazepin-5-one]	7.68	8.82
CCN1CC=C(c2cc3c(-c4cccc(N5CCOc6cc(C7CC7)cc(F)c6C5=O)c4CO)ccnc3[nH]2)CC1 [Example R-3, 8-cyclopropyl-4-[3-[2-(1-ethyl-3,6-dihydro-2H-pyridin-4-yl)-1H-pyrrolo[2,3-b]pyridin-4-yl]-2-(hydroxymethyl)phenyl]-6-fluoro-2,3-dihydro-1,4-benzoxazepin-5-one]	7.07	7.66
CN1CC(N2CC=C(c3cc4c(-c5cccc(N6CCOc7cc(C8CC8)cc(F)c7C6=O)c5CO)ccnc4[nH]3)CC2)C1 [Example R-4, 8-cyclopropyl-6-fluoro-4-[2-(hydroxymethyl)-3-[2-[1-(1-methylazetidin-3-yl)-3,6-dihydro-2H-pyridin-4-yl]-1H-pyrrolo[2,3-b]pyridin-4-yl]phenyl]-2,3-dihydro-1,4-benzoxazepin-5-one]	7.15	8.80
CCN1CC(C(=O)N2CC=C(c3cc4c(-c5cccc(N6CCOc7cc(C8CC8)cc(F)c7C6=O)c5CO)ccnc4[nH]3)CC2)C1 [Example R-5, 8-cyclopropyl-4-[3-[2-[1-(1-ethylazetidine-3-carbonyl)-3,6-dihydro-2H-pyridin-4-yl]-1H-pyrrolo[2,3-b]pyridin-4-yl]-2-(hydroxymethyl)phenyl]-6-fluoro-2,3-dihydro-1,4-benzoxazepin-5-one]	7.29	9.12
C=CC(=O)N1CCCC(n2cc(-c3cc4c(-c5cccc(N6CCOc7cc(C8CC8)ccc7C6=O)c5CO)ncnc4[nH]3)cn2)C1 (centres unmarked) [Example S-1, 8-cyclopropyl-4-[2-(hydroxymethyl)-3-[6-[1-(1-prop-2-enoyl-3-piperidyl)pyrazol-4-yl]-7H-pyrrolo[2,3-d]pyrimidin-4-yl]phenyl]-2,3-dihydro-1,4-benzoxazepin-5-one]	6.89	8.40
N#CCN1CC(n2cc(-c3cc4c(-c5cccc(N6CCOc7cc(C8CC8)ccc7C6=O)c5CO)ccnc4[nH]3)cn2)C1 [Example S-2, 2-[3-[4-[4-[3-(8-cyclopropyl-5-oxo-2,3-dihydro-1,4-benzoxazepin-4-yl)-2-(hydroxymethyl)phenyl]-1H-pyrrolo[2,3-b]pyridin-2-yl]pyrazol-1-yl]azetidin-1-yl]acetonitrile]	6.90	7.92
